Measured values published in patent US20220380375A1, “SUBSTITUTED AROMATIC FUSED RING DERIVATIVE AND COMPOSITION COMPRISING SAME, AND USE THEREOF” (Shenzhen TargetRx, Inc., priority 2019, published 2022).

Experiments:
Format in all cases: cell-based
[1] = target: T1, Ba/F3 KIF5B-RET^V804M cells (Homo sapiens, UniProt P07949, V804M, cells depend on it); experiment: Cytotoxicity assay (CellTiter-Glo), Ba/F3 KIF5B-RET V804M; conditions: CellTiter-Glo, 72 hrs; read-out: Ba/F3 KIF5B-RET^V804M IC50
T1 construct: Ba/F3 KIF5B-RET^V804M IC50 (nM); other: CellTiter-Glo, 72 hrs; fused on or other part: P33176 (Kinesin-1 heavy chain)
T1 sequence (P07949 whole entry V804M, the tested form may be a part): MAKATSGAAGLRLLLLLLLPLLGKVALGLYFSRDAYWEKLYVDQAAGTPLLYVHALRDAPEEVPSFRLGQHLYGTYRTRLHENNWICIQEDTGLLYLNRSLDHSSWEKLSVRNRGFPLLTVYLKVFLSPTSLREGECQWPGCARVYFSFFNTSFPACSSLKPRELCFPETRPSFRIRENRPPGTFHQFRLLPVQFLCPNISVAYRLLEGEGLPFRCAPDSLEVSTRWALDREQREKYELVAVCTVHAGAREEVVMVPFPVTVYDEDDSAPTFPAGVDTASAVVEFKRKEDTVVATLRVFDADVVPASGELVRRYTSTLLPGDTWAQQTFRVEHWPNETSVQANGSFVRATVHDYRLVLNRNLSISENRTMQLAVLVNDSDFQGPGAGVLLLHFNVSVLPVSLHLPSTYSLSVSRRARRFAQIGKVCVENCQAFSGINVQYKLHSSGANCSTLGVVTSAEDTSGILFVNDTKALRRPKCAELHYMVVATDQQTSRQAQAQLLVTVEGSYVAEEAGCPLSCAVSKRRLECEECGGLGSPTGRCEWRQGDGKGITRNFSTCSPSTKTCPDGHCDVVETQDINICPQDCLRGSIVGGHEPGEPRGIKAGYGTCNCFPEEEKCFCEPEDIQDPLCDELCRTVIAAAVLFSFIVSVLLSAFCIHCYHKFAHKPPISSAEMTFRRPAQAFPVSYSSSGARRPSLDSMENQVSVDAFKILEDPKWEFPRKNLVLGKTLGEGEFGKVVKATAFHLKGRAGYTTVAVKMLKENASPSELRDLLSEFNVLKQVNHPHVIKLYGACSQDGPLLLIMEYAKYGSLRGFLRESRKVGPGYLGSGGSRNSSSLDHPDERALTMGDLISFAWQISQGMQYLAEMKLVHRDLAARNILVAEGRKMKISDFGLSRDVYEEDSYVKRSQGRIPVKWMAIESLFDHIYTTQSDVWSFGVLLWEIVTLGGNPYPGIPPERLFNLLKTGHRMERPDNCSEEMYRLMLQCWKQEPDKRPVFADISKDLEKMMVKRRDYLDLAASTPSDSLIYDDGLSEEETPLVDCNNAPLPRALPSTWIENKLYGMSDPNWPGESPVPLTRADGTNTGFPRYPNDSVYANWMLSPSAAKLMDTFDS
Procedure: (§1) Inhibitory effects of example compounds on the activity of Ba/F3 parental generation, Ba/F3 KIF5B-RET, Ba/F3 KIF5B-RET^V804M, Ba/F3 KIF5B-RET^V804L, Ba/F3 KIF5B-RET^G810R, Ba/F3 FLT3-ITD, Ba/F3 FLT3-ITD^D835Y, Ba/F3 FLT3-ITD^F691L cells were determined.
(§2) Materials and reagents: fetal bovine serum FBS (GIBCO, Cat #10099141), CellTiter-Glo® Luminescent Cell Viability Assay kit (Promega, Cat #G7572), 96-well black-wall clear flat-bottom plate (Corning®, Cat #3603).
(§3) 1. Cells in the logarithmic growth phase were harvested and counted with a […]. Cell viability was detected by a trypan blue exclusion method, ensuring that cell viability was 90% or more; 2. Cell concentration was adjusted to about 3000 cells/well; 90 μl of cell suspension was added to each well of the 96-well plate; 3. The cells in the 96-well plate were incubated overnight under the condition of 37° C., 5% CO2, and 95% humidity.
(§4) 1. A series of compound solutions were formulated by 3.16-fold serial dilution starting from a concentration of 10 μM, resulting in 9 concentrations. 10 μL of the compound solutions were added in each well of the 96-well plate seeded with cells in triplicate for each compound concentration; 2. The cells in the 96-well plate added with compounds were further incubated under the condition of 37° C., 5% CO2, and 95% humidity for 72 hrs, and then CTG analysis was carried out.
(§5) 1. CTG reagent was thawed, and the cell plate was equilibrated at room temperature for 30 minutes; 2. An equal volume […] of CTG solution was added to each well; 3. The cell plate was shaken on an orbital shaker for 5 minutes to lyse the cells; 4. The cell plate was placed at RT for 20 minutes to stabilize the luminescence signal; 5. Luminescence value was read.
(§6) Data were Analyzed by GraphPad Prism 5.0 Software, and Fitted by Nonlinear S-Curve Regression to obtain a dose-response curve, from which IC50 values were calculated.
(§7) Cell survival rate (%)=(luminescence value of drug to be tested−luminescence value of culture medium control)/(luminescence value of cell control−luminescence value of culture medium control)×100%.

[2] = tested on: Ba/F3 KIF5B-RET^V804M cells; experiment: as above; conditions: ratio of Ba/F3 parental IC50 to Ba/F3 KIF5B-RET^V804M IC50
Procedure: as §1, §2, §3, §4, §5, §6, §7

[3] = tested on: Ba/F3 KIF5B-RET^V804L cells; experiment: Cytotoxicity assay (CellTiter-Glo), Ba/F3 KIF5B-RET V804L; conditions: ratio of Ba/F3 parental IC50 to Ba/F3 KIF5B-RET^V804L IC50
Procedure: as §1, §2, §3, §4, §5, §6, §7

[4] = target: T2, Ba/F3 KIF5B-RET^V804L cells (Homo sapiens, UniProt P07949, V804L, cells depend on it); experiment: as above; conditions: CellTiter-Glo, 72 hrs; read-out: Ba/F3 KIF5B-RET^V804L IC50
T2 construct: Ba/F3 KIF5B-RET^V804L IC50 (nM); other: CellTiter-Glo, 72 hrs; fused on or other part: P33176 (Kinesin-1 heavy chain)
T2 sequence (P07949 whole entry V804L, the tested form may be a part): as the sequence (P07949 whole entry V804M, the tested form may be a part) above, with M804L counted along it
Procedure: as §1, §2, §3, §4, §5, §6, §7

Ba/F3 FLT3-ITD cells = target: T3, Ba/F3 FLT3-ITD cells (Homo sapiens, UniProt P36888, cells depend on it, form not given); experiment: Cytotoxicity assay (CellTiter-Glo), Ba/F3 FLT3-ITD; conditions: CellTiter-Glo, 72 hrs; read-out: Ba/F3 FLT3-ITD IC50
T3 construct: Ba/F3 FLT3-ITD IC50 (nM); other: CellTiter-Glo, 72 hrs
T3 sequence (P36888 1-993): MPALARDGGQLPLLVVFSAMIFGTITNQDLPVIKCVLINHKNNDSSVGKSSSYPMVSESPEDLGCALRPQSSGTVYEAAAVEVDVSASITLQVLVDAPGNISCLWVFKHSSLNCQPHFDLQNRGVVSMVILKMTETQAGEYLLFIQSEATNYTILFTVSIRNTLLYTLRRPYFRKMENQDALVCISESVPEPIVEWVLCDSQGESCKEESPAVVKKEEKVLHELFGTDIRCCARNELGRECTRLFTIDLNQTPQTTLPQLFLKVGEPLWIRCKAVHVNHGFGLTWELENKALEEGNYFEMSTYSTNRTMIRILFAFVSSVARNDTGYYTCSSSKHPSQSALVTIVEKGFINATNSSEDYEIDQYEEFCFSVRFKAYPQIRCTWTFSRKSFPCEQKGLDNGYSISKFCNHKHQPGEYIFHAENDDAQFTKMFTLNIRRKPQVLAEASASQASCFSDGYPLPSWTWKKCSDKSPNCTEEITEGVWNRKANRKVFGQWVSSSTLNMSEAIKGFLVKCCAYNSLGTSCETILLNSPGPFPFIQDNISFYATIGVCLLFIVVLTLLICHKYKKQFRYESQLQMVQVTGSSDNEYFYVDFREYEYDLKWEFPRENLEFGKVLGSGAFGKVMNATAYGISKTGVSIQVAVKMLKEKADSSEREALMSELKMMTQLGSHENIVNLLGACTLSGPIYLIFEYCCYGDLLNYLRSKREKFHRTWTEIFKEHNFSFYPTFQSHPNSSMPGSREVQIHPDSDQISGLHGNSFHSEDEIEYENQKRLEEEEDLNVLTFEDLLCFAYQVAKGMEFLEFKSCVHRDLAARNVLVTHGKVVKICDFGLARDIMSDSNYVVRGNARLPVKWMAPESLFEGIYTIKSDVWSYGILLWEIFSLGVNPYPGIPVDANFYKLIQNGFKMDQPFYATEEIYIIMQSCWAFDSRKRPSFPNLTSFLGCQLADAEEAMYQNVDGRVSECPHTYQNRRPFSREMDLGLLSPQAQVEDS
Procedure: as §1, §2, §3, §4, §5, §6, §7

Structure (SMILES)	GI50 [1]	Ba/F3 KIF5B-RET^V804M Selectivity on parental generation [2]	Ba/F3 KIF5B-RET^V804L Selectivity on parental generation [3]	GI50 [4]	GI50 (Ba/F3 FLT3-ITD cells)
CC(C)n1nc(-c2ccc(NC(=O)Nc3cc(C(C)(C)C(F)(F)F)on3)cc2)c2c(N)ncnc21 [Compound T-2, 1-(4-(4-amino-1-isopropyl-1H-pyrazolo[3,4-d]pyrimidin-3-yl)phenyl)-3-(5-(1,1,1-trifluoro-2-methylprop-2-yl)isoxazol-3-yl)urea]	2.64 nM	128.0	62.68	5.39 nM	0.41 nM
CC(C)c1nc(-c2ccc(CC(=O)Nc3cc(C(C)(C)C(F)(F)F)on3)cc2)c2c(N)nccn12 [Compound T-4, 2-(4-(8-amino-3-isopropylimidazo[1,5-a]pyrazin-1-yl)phenyl)-N-(5-(1,1,1-trifluoro-2-methylprop-2-yl)isoxazol-3-yl)acetamide]	9.53 nM	73.6	22.2	31.6 nM	0.1 nM
CC(C)n1cc(-c2ccc(CC(=O)Nc3cc(C(C)(C)C(F)(F)F)on3)cc2)c2c(N)ncnc21 [Compound T-3, 2-(4-(4-amino-7-isopropyl-7H-pyrrolo[2,3-d]pyrimidin-5-yl)phenyl)-N-(5-(1,1,1-trifluoro-2-methylprop-2-yl)isoxazol-3-yl)acetamide]	3.21 nM	225.7	199.6	3.63 nM	0.1 nM
[2H]C([2H])([2H])C(n1cc(-c2ccc(CC(=O)Nc3cc(C(C)(C)C(F)(F)F)on3)cc2)c2c(N)ncnc21)C([2H])([2H])[2H] [Compound T-12, 2-(4-(4-amino-7-(propen-2-yl-1,1,1,3,3,d6)-7H-pyrrolo[2,3-d]pyrimidin-5-yl)phenyl)-N-(5-(1,1,1-trifluo-2-methylpropan-2-yl)isoxazol-3-yl)acetamide]	4.55 nM	235.6	132.2	8.11 nM	0.7 nM
CC(C)c1nc(-c2ccc(CC(=O)Nc3cc(C(C)(C)C(F)(F)F)on3)cc2)c2c(N)ncnn12 [Compound T-10, 2-(4-(4-amino-7-isopropylimidazo[5,1-f][1,2,4]triazin-5-yl)phenyl)-N-(5-(1,1,1-trifluoro-2-methylprop-2-yl)isoxazol-3-yl)acetamide]	11.7 nM	191.6	121.8	18.4 nM	0.32 nM
[2H]C([2H])([2H])C(n1nc(-c2ccc(CC(=O)Nc3cc(C(C)(C)C(F)(F)F)no3)cc2)c2c(N)ncnc21)C([2H])([2H])[2H] [Compound T-11, 2-(4-(4-amino-1-(propan-2-yl-1,1,1,3,3,3-d6)-1H-pyrazolo[3,4-d]pyrimidin-3-yl)phenyl)-N-(3-(1,1,1-trifluoro-2-methylpropan-2-yl)isoxazol-5-yl)acetamide]	3.63 nM	1517.1	902.8	6.1 nM	0.73 nM
CC(C)n1nc(-c2ccc(CC(=O)Nc3cc(C(C)(C)C(F)(F)F)on3)c(F)c2)c2c(N)ncnc21 [Compound T-6, 2-(4-(4-amino-1-isopropyl-1H-pyrazolo[3,4-d]pyrimidin-3-yl)-2-fluorophenyl)-N-(5-(1,1,1-trifluoro-2-methylprop-2-yl)isoxazol-3-yl)acetamide]	9.9 nM	211.7	361.3	5.8 nM	0.4 nM
CC(C)n1nc(-c2ccc(CC(=O)Nc3cc(C(C)(C)C(F)(F)F)no3)cc2)c2c(N)ncnc21 [Compound T-8, 2-(4-(4-amino-1-isopropyl-1H-pyrazolo[3,4-d]pyrimidin-3-yl)phenyl)-N-(3-(1,1,1-trifluoro-2-methylprop-2-yl)isoxazol-5-yl)acetamide]	3.6 nM	1021.4	2403.3	1.53 nM	0.25 nM
CC(C)n1nc(-c2ccc(CC(=O)Nc3cc(C(C)(C)C(F)(F)F)on3)cc2)c2c(N)ncnc21 [Compound T-1, 2-(4-(4-amino-1-isopropyl-1H-pyrazolo[3,4-d]pyrimidin-3-yl)phenyl)-N-(5-(1,1,1-trifluoro-2-methylprop-2-yl)isoxazol-3-yl)acetamide]	5.65 nM	286.8	436.8	3.71 nM	0.31 nM
CC(C)n1nc(-c2ccc(CC(=O)Nc3cc(C(C)(C)C(F)(F)F)on3)cn2)c2c(N)ncnc21 [Compound T-7, 2-(6-(4-amino-1-isopropyl-1H-pyrazolo[3,4-d]pyrimidin-3-yl)pyridin-3-yl)-N-(5-(1,1,1-trifluoro-2-methylprop-2-yl)isoxazol-3-yl)acetamide]	3.42 nM	95.9	5.9	55.7 nM	0.1 nM
CC(C)n1nc(-c2ccc(CC(=O)Nc3cc(C(C)(C)C(F)(F)F)no3)cn2)c2c(N)ncnc21 [Compound T-9, 2-(6-(4-amino-1-isopropyl-1H-pyrazolo[3,4-d]pyrimidin-3-yl)pyridin-3-yl)-N-(3-(1,1,1-trifluoro-2-methylprop-2-yl)isoxazol-5-yl)acetamide]	29.9 nM	137.7	83.5	49.3 nM	5.49 nM
CC(C)c1cc(-c2ccc(CC(=O)Nc3cc(C(C)(C)C(F)(F)F)on3)cc2)c2c(N)ncnn12 [Compound T-5, 2-(4-(4-amino-7-isopropylpyrrolo[2,1-f][1,2,4]triazin-5-yl)phenyl)-N-(5-(1,1,1-trifluoro-2-methylprop-2-yl)isoxazol-3-yl)acetamide]	12.9 nM	370.8	242.8	19.7 nM	1.89 nM
